# Results published in US10935560B2, “Method and kit for identifying lupus anticoagulant (LA) associated with antiphospholipid syndrome” (Instrumentation Laboratory Company, priority 2016, dated 2021).
# Tests used:
# [1] = system: normal pooled plasma (NPP); test: dRVVT Screen / dRVVT Confirm test, 1:1 mixing study; assay type: biochemical, human; settings: 1000 ng/ml hirudin (1.02 in the absence of hirudin)
# From the text: (§1) The results of the LA screening assays are expressed by Screen Ratio (Rs), an assay done in the presence of low levels of phospholipid, Confirm Ratio (Re), an assay done in the presence of elevated levels of phospholipid, Screen-to-Confirm Ratio (R) and Normalized Screen-to-Confirm Ratio (NR) defined as follows: […]
# (§2) For each of the assays above, irrespective of the clotting inhibitor used in the assay, the measured screen assay clotting time of a patient sample is compared to the measured screen assay clotting time of normal platelet poor plasma and expressed as a ratio (Rs). Additionally, the measured confirm assay clotting time of a patient sample is compared to the measured confirm assay clotting time of normal platelet poor plasma and expressed as a ratio (Rc). A normalized ratio (NR) is expressed as Rs/Rc. The NR is compared to a cutoff ratio established from normal, healthy subjects.
# [2] = system: LA positive plasma sample; test: as above; assay type: biochemical, human; settings: LA positive sample
# From the text: as §1, §2
substance,measurement,setting,value
hirudin,Screen-to-Confirm Ratio of dRVVT Assay,[1],1.18
same,Normalized ratio of dRVVT Assay,[2]; 200 ng/ml hirudin alone,1.72
same,Normalized ratio of dRVVT Assay,[2]; 1000 ng/ml hirudin (1.39 without thrombin inhibitor),1.81
same,Screen-to-Confirm Ratio of dRVVT Assay,[2]; 1000 ng/ml hirudin (1.41 in the absence of hirudin),2.14
